Data from patent US8012980B2, “Isoquinolinone derivatives” (AstraZeneca AB, priority 2008, dated 2011).
Structures can show the parent of a compound that is named as a salt.

Molecular target: T1, human active recombinant p38 (p38α) (Homo sapiens, UniProt Q16539)
T1 construct: 6His
Assay: p38 Alpha Enzyme Assay (AlphaScreen, biotinylated-ATF2 substrate)
Type: biochemical
Conditions: means of replicate determinations, pre-incubated for 4 hours at 37° C., SD of assay between 0.2 and 0.3 log units; for IC50: read-out: p38α inhibition Mean pIC50 (converted)
Experimental: The ability of the compounds of formula (I) to inhibit p38 kinase may be determined using the following biological assay:
Enzyme assays were performed in polypropylene 96 well plates. The following solutions were added to each well; 10 μL of compound dilutions in assay buffer (20 mM HEPES pH 7.4, containing 20 mM magnesium acetate, 0.005% (w/v) Tween-20, 10 mM DTT) containing 1% (v/v) DMSO or assay buffer containing 1% (v/v) DMSO alone, 70 μL of assay buffer containing 36 nM substrate (biotinylated-ATF2) and 10 μL of an appropriate dilution of human active recombinant p38-6H is tagged. Depending on batch of p38, an appropriate dilution was typically a 5 nM solution to give a final enzyme concentration of 0.5 nM. At this stage, background control wells also received 50 μL of AlphaScreen quench buffer (10 mM HEPES pH 7.4 containing 100 mM EDTA, 0.2% (w/v) bovine serum albumin). The plate was covered, pre-incubated for 4 hours at 37° C. and the enzyme reaction initiated by addition of 10 μL 1 mM ATP. After incubation for a further 45 minutes at 37° C., the reaction was stopped by addition of 50 μL quench reagent and 50 μL of the quenched reaction mixture transferred to an opaque, white 96-well plate. Detection reagent, 25 μL of 10 mM HEPES pH 7.4 containing 100 mM EDTA, 0.2% (w/v) bovine serum albumin, 0.3 nM anti phosphoATF2 antibody and 25 μg/mL of AlphaScreen protein A acceptor and donor beads' (PerkinElmer Inc.), was added to all wells in a darkened room, the plate sealed and left in the dark for at least 5 hours before AlphaScreen readings were taken using a Perkin Elmer EnVision reader. Total, uninhibited activity was determined from assays performed in each assay plate. The mean control in the absence of p38 activity was subtracted from each well. Data were expressed as percent inhibition of total activity using equation 1. Percent Inhibition=100*(1−Test/Control) Eq.1 Where . . . Test=p38 kinase activity in the presence of compound Control=p38 kinase activity in the absence of compound.
pIC50 is defined as the logarithm of the reciprocal of the concentration of compound required for 50% reduction in total p38 kinase activity.
The standard deviation of the p38 enzyme inhibition assay is between 0.2 and 0.3 log units.

T1 sequence (Q16539 whole entry): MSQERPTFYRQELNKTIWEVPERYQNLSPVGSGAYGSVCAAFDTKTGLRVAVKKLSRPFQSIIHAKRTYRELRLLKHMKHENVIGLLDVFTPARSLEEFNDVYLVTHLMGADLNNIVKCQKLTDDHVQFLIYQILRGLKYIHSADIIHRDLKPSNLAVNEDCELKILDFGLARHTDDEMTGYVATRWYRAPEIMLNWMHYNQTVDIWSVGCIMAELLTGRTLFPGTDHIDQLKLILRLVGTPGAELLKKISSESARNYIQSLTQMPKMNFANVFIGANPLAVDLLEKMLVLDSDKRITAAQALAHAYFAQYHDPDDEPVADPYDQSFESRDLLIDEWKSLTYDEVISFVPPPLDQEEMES

IC50	p38α inhibition Mean pIC50	SMILES
0.158 nM		Cc1c(F)cc(C(=O)NC2CC2)cc1-c1ccc2c(=O)n(CC(C)(C)CO)cc(CN3CCN[C@@H](CO)C3)c2c1 [Example 11, N-Cyclopropyl-3-fluoro-5-(2-(3-hydroxy-2,2-dimethylpropyl)-4-(((3R)-3-(hydroxymethyl)piperazin-1-yl)methyl)-1-oxo-1,2-dihydroisoquinolin-6-yl)-4-methylbenzamide]
0.398 nM		Cc1c(F)cc(C(=O)NC2CC2)cc1-c1ccc2c(=O)n(CC3(CO)CC3)cc(CN3CCN[C@@H](CO)C3)c2c1 [Example 12, N-Cyclopropyl-3-fluoro-5-(2-((1-(hydroxymethyl)cyclopropyl)methyl)-4-(((3R)-3-(hydroxymethyl)piperazin-1-yl)methyl)-1-oxo-1,2-dihydroisoquinolin-6-yl)-4-methylbenzamide]
0.501 nM		Cc1c(F)cc(C(=O)NC2CC2)cc1-c1ccc2c(=O)n(CCC(C)(C)O)cc(CN3CCN[C@@H](CO)C3)c2c1 [Example 14, N-Cyclopropyl-3-fluoro-5-(2-(3-hydroxy-3-methylbutyl)-4-(((3R)-3-(hydroxymethyl)piperazin-1-yl)methyl)-1-oxo-1,2-dihydroisoquinolin-6-yl)-4-methylbenzamide]
0.501 nM		Cc1c(F)cc(C(=O)NC2CC2)cc1-c1ccc2c(=O)n(CC3(CO)CC3)cc(CN3CCN[C@H](CO)C3)c2c1 [Example 15, N-Cyclopropyl-3-fluoro-5-(2-((1-(hydroxymethyl)cyclopropyl)methyl)-4-(((3S)-3-(hydroxymethyl)piperazin-1-yl)methyl)-1-oxo-1,2-dihydroisoquinolin-6-yl)-4-methylbenzamide]
0.794 nM		Cc1c(F)cc(C(=O)NC2CC2)cc1-c1ccc2c(=O)n(C[C@H](C)CO)cc(CN3CCNCC3)c2c1 [Example 18, N-Cyclopropyl-3-fluoro-5-{2-[(2S)-3-hydroxy-2-methylpropyl]-1-oxo-4-(piperazin-1-ylmethyl)-1,2-dihydroisoquinolin-6-yl}-4-methylbenzamide]
0.794 nM		Cc1c(F)cc(C(=O)NC2CC2)cc1-c1ccc2c(=O)n(C[C@@H](C)CO)cc(CN3CCNCC3)c2c1 [Example 20, N-Cyclopropyl-3-fluoro-5-{2-[(2R)-3-hydroxy-2-methylpropyl]-1-oxo-4-(piperazin-1-ylmethyl)-1,2-dihydroisoquinolin-6-yl}-4-methylbenzamide]
0.251 nM		Cc1c(F)cc(C(=O)NC2CC2)cc1-c1ccc2c(=O)n(CC(C)(C)CO)cc(CN3CCNC[C@H]3CO)c2c1 [Example 21, N-Cyclopropyl-3-fluoro-5-[2-(3-hydroxy-2,2-dimethylpropyl)-4-{[(2S)-2-(hydroxymethyl)piperazin-1-yl]methyl}-1-oxo-1,2-dihydroisoquinolin-6-yl]-4-methylbenzamide]
0.316 nM		Cc1c(F)cc(C(=O)NC2CC2)cc1-c1ccc2c(=O)n(CC3(CO)CCC3)cc(CN3CCNCC3)c2c1 [Example 27, N-Cyclopropyl-3-fluoro-5-[2-{[1-(hydroxymethyl)cyclobutyl]methyl}-1-oxo-4-(piperazin-1-ylmethyl)-1,2-dihydroisoquinolin-6-yl]-4-methylbenzamide]
0.794 nM		Cc1c(F)cc(C(=O)NC2CC2)cc1-c1ccc2c(=O)n(CC(C)(C)CO)cc(CN3CCN[C@@H](C)C3)c2c1 [Example 29, N-Cyclopropyl-3-fluoro-5-[2-(3-hydroxy-2,2-dimethylpropyl)-4-{[(3S)-3-methylpiperazin-1-yl]methyl}-1-oxo-1,2-dihydroisoquinolin-6-yl]-4-methylbenzamide hydrochloride]
0.126 nM		Cc1c(F)cc(C(=O)NC2CC2)cc1-c1ccc2c(=O)n(CC(C)(C)CO)cc(CN3CCC[C@@H](N)C3)c2c1 [Example 30, 3-[4-{[(3R)-3-Aminopiperidin-1-yl]methyl}-2-(3-hydroxy-2,2-dimethylpropyl)-1-oxo-1,2-dihydroisoquinolin-6-yl]-N-cyclopropyl-5-fluoro-4-methylbenzamide]

Second part, the compound before the results:

SMILES	IC50	p38α inhibition Mean pIC50
Cc1c(F)cc(C(=O)NC2CC2)cc1-c1ccc2c(=O)n(CC[C@H](C)O)cc(CN3CCNCC3)c2c1 [Example 9, N-Cyclopropyl-3-fluoro-5-{2-[(3S)-3-hydroxybutyl]-1-oxo-4-(piperazin-1-ylmethyl)-1,2-dihydroisoquinolin-6-yl}-4-methylbenzamide]	1.58 nM	
Cc1c(F)cc(C(=O)NC2CC2)cc1-c1ccc2c(=O)n(CCCO)cc(CN3CCNCC3)c2c1 [Example 10, N-Cyclopropyl-3-fluoro-5-[2-(3-hydroxypropyl)-1-oxo-4-(piperazin-1-ylmethyl)-1,2-dihydroisoquinolin-6-yl]-4-methylbenzamide]	0.0794 nM	
COCCCn1cc(CN2CCN[C@@H](CO)C2)c2cc(-c3cc(C(=O)NC4CC4)cc(F)c3C)ccc2c1=O [Example 13]	0.501 nM	
Cc1c(F)cc(C(=O)NC2CC2)cc1-c1ccc2c(=O)n(CC3(CO)CC3)cc(CN3CCNC[C@@H]3CO)c2c1 [Example 16, N-Cyclopropyl-3-fluoro-5-(2-((1-(hydroxymethyl)cyclopropyl)methyl)-4-(((2R)-2-(hydroxymethyl)piperazin-1-yl)methyl)-1-oxo-1,2-dihydroisoquinolin-6-yl)-4-methylbenzamide]	0.251 nM	
Cc1c(F)cc(C(=O)NC2CC2)cc1-c1ccc2c(=O)n(CC(C)(C)CO)cc(CN3CCN[C@H](CO)C3)c2c1 [Example 17, N-Cyclopropyl-3-fluoro-5-(2-(3-hydroxy-2,2-dimethylpropyl)-4-(((3S)-3-(hydroxymethyl)piperazin-1-yl)methyl)-1-oxo-1,2-dihydroisoquinolin-6-yl)-4-methylbenzamide]		9.6
Cc1c(F)cc(C(=O)NC2CC2)cc1-c1ccc2c(=O)n(CC3(CO)CC3)cc(CN3CCNCC3)c2c1 [Example 19, N-Cyclopropyl-3-fluoro-5-[2-{[1-(hydroxymethyl)cyclopropyl]methyl}-1-oxo-4-(piperazin-1-ylmethyl)-1,2-dihydroisoquinolin-6-yl]-4-methylbenzamide]	0.398 nM	
Cc1c(F)cc(C(=O)NC2CC2)cc1-c1ccc2c(=O)n(CC(C)(C)CO)cc(CN3CCNC[C@@H]3CO)c2c1 [Example 22, N-Cyclopropyl-3-fluoro-5-[2-(3-hydroxy-2,2-dimethylpropyl)-4-{[(2R)-2-(hydroxymethyl)piperazin-1-yl]methyl}-1-oxo-1,2-dihydroisoquinolin-6-yl]-4-methylbenzamide]	0.158 nM	
Cc1c(F)cc(C(=O)NC2CC2)cc1-c1ccc2c(=O)n(CC(C)(C)CO)cc(CN3CCCNCC3)c2c1 [Example 23, N-Cyclopropyl-3-[4-(1,4-diazepan-1-ylmethyl)-2-(3-hydroxy-2,2-dimethylpropyl)-1-oxo-1,2-dihydroisoquinolin-6-yl]-5-fluoro-4-methylbenzamide]	0.316 nM	
Cc1c(F)cc(C(=O)NC2CC2)cc1-c1ccc2c(=O)n(CC(C)(C)CO)cc(CN3CCN(C)CC3)c2c1 [Example 24, N-Cyclopropyl-3-fluoro-5-{2-(3-hydroxy-2,2-dimethylpropyl)-4-[(4-methylpiperazin-1-yl)methyl]-1-oxo-1,2-dihydroisoquinolin-6-yl}-4-methylbenzamide]	0.631 nM	
Cc1c(F)cc(C(=O)NC2CC2)cc1-c1ccc2c(=O)n(CC(C)(C)CO)cc(CN3CCC[C@H](N)C3)c2c1 [Example 25, 3-[4-{[(3S)-3-Aminopiperidin-1-yl]methyl}-2-(3-hydroxy-2,2-dimethylpropyl)-1-oxo-1,2-dihydroisoquinolin-6-yl]-N-cyclopropyl-5-fluoro-4-methylbenzamide]		8.8
Cc1c(F)cc(C(=O)NC2CC2)cc1-c1ccc2c(=O)n(CC(C)(C)CO)cc(CN3CCNC[C@@H]3C)c2c1 [Example 28, N-Cyclopropyl-3-fluoro-5-[2-(3-hydroxy-2,2-dimethylpropyl)-4-{[(2S)-2-methylpiperazin-1-yl]methyl}-1-oxo-1,2-dihydroisoquinolin-6-yl]-4-methylbenzamide]	0.794 nM	
Cc1c(F)cc(C(=O)NC2CC2)cc1-c1ccc2c(=O)n(CC(C)(C)CO)cc(CN3CCC(C)(N)CC3)c2c1 [Example 31, 3-{4-[(4-Amino-4-methylpiperidin-1-yl)methyl]-2-(3-hydroxy-2,2-dimethylpropyl)-1-oxo-1,2-dihydroisoquinolin-6-yl}-N-cyclopropyl-5-fluoro-4-methylbenzamide]	0.794 nM	
